{
  "source": "paper PMC7875911",
  "about": "(Frontiers in Pharmacology, 2021)",
  "key": {"[1]": {"system": "Nav1.7", "conditions": "cited from earlier work", "text": "Loss-of-function mutation of the SCN9A gene that codes for Nav1.7 leads to congenital insensitivity to pain ([Cox et al., 2006]), whereas SCN9A gain-of-function mutations causes paroxysmal extreme pain disorder and primary erythromelalgia ([Dib-Hajj et al., 2008]). […] Homology of VGIC voltage sensing domains, and particularly those of Nav channels, is at the crux of the development of genuinely selective Nav1.7 modulators ([Kingwell, 2019]). Given the VSD functional importance in neuronal VGICs and their structural homology, it is not surprising that VDPs target related channel families. […] Mammalian Nav and Cav α-subunits are structurally homologous but differ in their gating mechanisms ([Kubota et al., 2017])."}, "[2]": {"system": "rCav1.3", "assay": "Whole-cell patch clamp, recombinant rCav1.3 in HEK293", "format": "cell-based, rat", "conditions": "10 µM", "protocol": "Human embryonic kidney (HEK293T) cells containing the SV40 Large T-antigen were cultured at 37°C, 5% CO2 in Dulbecco’s Modified Eagle’s Medium (DMEM, Invitrogen Life Technologies, Australia), supplemented with 10% fetal bovine serum (FBS, Bovigen, Australia), 1% GlutaMAX and penicillin-streptomycin (Invitrogen, Australia). […]\nDepolarization-activated Ca^2+ currents (ICa) in transfected HEK293 cells were recorded in the whole-cell patch clamp configuration. Data were recorded using a MultiClamp 700B amplifier, digitized with a DigiData1440 and controlled using Clampex10.7 software (Molecular Devices, United States). […]\n(§1) Statistical significance (p < 0.05) was determined using unpaired Student’s t-test or 1-way ANOVA followed by a Tukey multiple comparison. […]\nNumerous HVA Cav channel isoforms are present in rat DRG neurons. […] We transiently co-transfected the individual Cav channel α-subunits of interest together with β3 and α2δ1 subunits in HEK293 cells and measured whole-cell I Ca currents by patch clamp. […]"}, "[3]": {"system": "TTXs-I Na in small-diameter IB4 ^− DRG neurons", "conditions": "cited from earlier work"}, "[4]": {"target": "T1, hCav2.2 (Homo sapiens, UniProt Q00975)", "T1 construct": "expressed in transfected cells; host or cells: HEK293 (HEK293T), transient calcium phosphate co-transfection", "T1 sequence (P54289 25-956)": "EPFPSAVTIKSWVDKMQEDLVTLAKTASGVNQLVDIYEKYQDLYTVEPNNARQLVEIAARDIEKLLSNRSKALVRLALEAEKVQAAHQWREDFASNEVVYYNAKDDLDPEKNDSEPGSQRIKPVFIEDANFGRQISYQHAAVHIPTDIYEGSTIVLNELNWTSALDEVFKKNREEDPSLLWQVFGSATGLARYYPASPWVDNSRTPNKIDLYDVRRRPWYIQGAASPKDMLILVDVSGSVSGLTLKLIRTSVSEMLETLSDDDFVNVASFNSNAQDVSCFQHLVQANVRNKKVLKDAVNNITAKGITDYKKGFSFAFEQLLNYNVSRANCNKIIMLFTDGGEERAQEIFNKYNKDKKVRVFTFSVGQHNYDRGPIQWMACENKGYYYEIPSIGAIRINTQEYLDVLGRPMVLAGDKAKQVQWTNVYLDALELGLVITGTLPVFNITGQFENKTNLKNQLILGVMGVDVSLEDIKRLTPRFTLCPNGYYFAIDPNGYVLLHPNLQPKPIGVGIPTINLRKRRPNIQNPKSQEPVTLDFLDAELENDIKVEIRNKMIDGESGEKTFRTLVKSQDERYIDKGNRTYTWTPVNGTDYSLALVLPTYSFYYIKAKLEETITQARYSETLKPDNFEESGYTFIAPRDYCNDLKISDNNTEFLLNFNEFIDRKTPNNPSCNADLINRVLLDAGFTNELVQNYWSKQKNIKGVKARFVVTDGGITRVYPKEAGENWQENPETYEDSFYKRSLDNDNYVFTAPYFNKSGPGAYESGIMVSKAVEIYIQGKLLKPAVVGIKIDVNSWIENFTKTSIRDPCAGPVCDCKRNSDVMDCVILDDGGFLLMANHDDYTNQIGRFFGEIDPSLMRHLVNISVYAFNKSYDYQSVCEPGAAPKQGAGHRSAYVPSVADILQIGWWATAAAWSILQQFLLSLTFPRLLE", "T1 sequence (P54289 957-1103)": "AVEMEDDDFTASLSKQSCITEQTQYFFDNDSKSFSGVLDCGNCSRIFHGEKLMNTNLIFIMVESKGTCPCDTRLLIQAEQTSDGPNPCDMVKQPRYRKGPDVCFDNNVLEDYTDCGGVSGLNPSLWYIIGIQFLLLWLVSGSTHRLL", "T1 sequence (Q00975 whole entry)": "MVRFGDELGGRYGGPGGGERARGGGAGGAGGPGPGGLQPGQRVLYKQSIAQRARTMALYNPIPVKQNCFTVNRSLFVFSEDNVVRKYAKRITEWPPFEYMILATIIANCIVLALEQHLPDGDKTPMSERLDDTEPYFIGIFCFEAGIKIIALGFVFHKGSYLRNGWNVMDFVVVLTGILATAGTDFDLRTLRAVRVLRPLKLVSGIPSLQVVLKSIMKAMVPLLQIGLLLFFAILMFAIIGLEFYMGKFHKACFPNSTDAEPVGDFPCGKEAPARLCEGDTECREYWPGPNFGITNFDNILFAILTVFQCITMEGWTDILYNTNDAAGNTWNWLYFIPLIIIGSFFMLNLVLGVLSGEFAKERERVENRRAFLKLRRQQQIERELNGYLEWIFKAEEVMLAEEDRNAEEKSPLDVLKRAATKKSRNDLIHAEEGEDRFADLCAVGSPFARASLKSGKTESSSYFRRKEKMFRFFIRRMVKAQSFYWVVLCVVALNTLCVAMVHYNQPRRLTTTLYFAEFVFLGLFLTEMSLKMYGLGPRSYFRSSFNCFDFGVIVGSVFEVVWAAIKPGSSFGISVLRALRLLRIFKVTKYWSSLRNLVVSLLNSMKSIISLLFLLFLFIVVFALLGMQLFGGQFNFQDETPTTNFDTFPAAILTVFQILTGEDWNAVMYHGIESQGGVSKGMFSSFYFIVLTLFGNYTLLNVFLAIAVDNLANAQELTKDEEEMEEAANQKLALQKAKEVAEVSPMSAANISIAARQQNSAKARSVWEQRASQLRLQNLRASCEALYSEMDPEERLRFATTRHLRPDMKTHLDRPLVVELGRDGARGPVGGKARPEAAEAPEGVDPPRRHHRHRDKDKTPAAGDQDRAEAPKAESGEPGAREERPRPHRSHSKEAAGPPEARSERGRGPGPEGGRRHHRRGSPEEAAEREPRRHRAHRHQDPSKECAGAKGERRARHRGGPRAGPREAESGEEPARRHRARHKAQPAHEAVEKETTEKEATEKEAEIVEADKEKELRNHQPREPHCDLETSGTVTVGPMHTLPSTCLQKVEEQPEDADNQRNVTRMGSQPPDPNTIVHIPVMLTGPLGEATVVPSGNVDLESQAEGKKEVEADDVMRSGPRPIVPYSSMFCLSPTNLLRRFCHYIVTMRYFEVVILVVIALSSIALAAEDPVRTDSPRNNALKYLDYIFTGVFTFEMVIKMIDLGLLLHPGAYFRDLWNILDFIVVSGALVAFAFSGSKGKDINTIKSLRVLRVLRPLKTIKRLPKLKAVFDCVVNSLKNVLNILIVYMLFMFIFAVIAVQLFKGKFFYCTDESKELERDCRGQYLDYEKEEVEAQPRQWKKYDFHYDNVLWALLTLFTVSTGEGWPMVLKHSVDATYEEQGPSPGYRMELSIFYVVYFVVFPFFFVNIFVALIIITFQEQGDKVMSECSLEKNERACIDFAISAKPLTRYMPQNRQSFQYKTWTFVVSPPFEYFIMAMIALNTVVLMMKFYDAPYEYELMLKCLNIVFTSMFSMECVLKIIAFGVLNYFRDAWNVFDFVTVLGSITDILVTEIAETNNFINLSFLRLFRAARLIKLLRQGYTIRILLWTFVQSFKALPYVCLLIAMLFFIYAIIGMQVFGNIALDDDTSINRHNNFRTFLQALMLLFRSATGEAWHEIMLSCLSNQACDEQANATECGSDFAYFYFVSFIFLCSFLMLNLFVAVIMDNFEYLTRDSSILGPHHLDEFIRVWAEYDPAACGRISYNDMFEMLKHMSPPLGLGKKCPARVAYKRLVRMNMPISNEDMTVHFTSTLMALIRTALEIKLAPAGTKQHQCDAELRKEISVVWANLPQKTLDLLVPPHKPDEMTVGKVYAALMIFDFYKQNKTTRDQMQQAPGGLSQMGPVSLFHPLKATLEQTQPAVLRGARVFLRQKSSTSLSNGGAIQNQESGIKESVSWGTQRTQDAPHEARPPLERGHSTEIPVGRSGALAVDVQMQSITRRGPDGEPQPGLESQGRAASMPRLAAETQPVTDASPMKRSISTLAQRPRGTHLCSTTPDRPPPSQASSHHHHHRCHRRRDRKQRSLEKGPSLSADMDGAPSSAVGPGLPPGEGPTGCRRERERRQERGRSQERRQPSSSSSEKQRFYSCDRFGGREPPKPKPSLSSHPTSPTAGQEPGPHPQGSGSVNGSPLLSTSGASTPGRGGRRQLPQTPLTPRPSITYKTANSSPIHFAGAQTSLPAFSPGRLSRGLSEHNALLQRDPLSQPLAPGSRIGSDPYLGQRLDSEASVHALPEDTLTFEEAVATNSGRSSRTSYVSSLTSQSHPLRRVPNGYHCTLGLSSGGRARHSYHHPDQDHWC", "T1 sequence (P54284 whole entry, further chain)": "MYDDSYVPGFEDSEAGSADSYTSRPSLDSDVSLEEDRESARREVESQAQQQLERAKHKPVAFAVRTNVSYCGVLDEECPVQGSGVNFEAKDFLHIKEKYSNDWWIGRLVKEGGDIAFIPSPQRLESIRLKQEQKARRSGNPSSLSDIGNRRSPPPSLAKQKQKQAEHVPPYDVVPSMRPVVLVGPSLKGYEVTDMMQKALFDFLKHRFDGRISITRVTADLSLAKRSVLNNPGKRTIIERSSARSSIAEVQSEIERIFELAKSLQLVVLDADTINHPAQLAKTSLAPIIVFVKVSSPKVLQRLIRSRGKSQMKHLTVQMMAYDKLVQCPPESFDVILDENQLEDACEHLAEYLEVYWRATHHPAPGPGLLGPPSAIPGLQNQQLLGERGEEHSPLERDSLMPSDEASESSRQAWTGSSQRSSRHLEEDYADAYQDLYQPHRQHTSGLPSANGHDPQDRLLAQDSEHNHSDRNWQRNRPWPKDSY", "assay": "hCav2.2 voltage dependence of activation", "format": "cell-based", "protocol": "Human embryonic kidney (HEK293T) cells containing the SV40 Large T-antigen were cultured at 37°C, 5% CO2 in Dulbecco’s Modified Eagle’s Medium (DMEM, Invitrogen Life Technologies, Australia), supplemented with 10% fetal bovine serum (FBS, Bovigen, Australia), 1% GlutaMAX and penicillin-streptomycin (Invitrogen, Australia). HEK293 cells were then transiently co-transfected with the different voltage-gated calcium channel isoforms and green fluorescent protein (GFP) for visualization, using the calcium phosphate method. cDNAs encoding mCav1.2 (a gift from Dr. D. Lipscombe; Addgene plasmid #26572) ([Helton et al., 2005]), rCav1.3 (a gift from Dr. D. Lipscombe; Addgene plasmid # 49,333) ([Xu and Lipscombe, 2001]), hCav2.1 (a gift from Dr. J. Striessnig), rCav2.2 (a gift from Dr. D. Lipscombe), hCav2.2 (a gift from Dr. D. Yue), hCav2.3 (purchased from GenScript United States Inc.) were co-transfected with β3, α2δ1 and GFP. After transfection, cells were plated on 12 mm cover glass and transferred to a 30°C incubator for 1–3 days.\nDepolarization-activated Ca^2+ currents (ICa) in transfected HEK293 cells were recorded in the whole-cell patch clamp configuration. Data were recorded using a MultiClamp 700B amplifier, digitized with a DigiData1440 and controlled using Clampex10.7 software (Molecular Devices, United States). Currents were sampled at 100 kHz and filtered to 10 kHz, with leak and capacitive currents subtracted using a −P/4 protocol. […] Intracellular recording solution contained as follows (mM): 140 KGluconate, 5 NaCl, 2 MgCl2, 5 EGTA and 10 HEPES, pH 7.2 with KOH. Cells were continuously perfused with extracellular solution at a rate of ∼1.2 ml/min. […] Activation curves of hCav2.2 were generated through a series of test pulses (50 ms) ranging from −30 to +50 mV (Δ5 mV) every 5 s with a holding potential of −90 mV. […]\nas §1"}},
  "note": "Entries after “also recorded” stand apart in the source; their conditions may differ.",
  "data": [
    {"smiles": "CSCC[C@@H]1NC(=O)[C@H](Cc2ccc(O)cc2)NC(=O)[C@H](CCCNC(=N)N)NC(=O)[C@@H](NC(=O)[C@@H](N)CC(=O)O)CSSC[C@@H]2NC(=O)[C@@H]3CSSC[C@@H](C(=O)N[C@@H](C)C(=O)N[C@@H](Cc4c[nH]c5ccccc45)C(=O)N[C@@H](CC(=O)O)C(=O)N[C@@H](Cc4ccccc4)C(=O)N[C@H](C(=O)N[C@@H](Cc4ccccc4)C(=O)N[C@H](C(=O)O)[C@@H](C)O)[C@@H](C)O)NC(=O)[C@H](Cc4ccc(O)cc4)NC(=O)[C@H](CCCCN)NC(=O)[C@H](CCSC)NC(=O)[C@H](CCCCN)NC(=O)[C@H](CCCNC(=N)N)NC(=O)[C@H](CCCCN)NC(=O)[C@H](CSSC[C@H](NC(=O)[C@H](CC(=O)O)NC(=O)CNC(=O)[C@H](Cc4ccccc4)NC1=O)C(=O)N[C@@H](CCC(=O)O)C(=O)N[C@@H](CCCCN)C(=O)N[C@@H](CC(=O)O)C(=O)N[C@@H](CCC(=O)O)C(=O)N[C@@H](CC(=O)O)C(=O)N3)NC(=O)CNC(=O)[C@H](CC(C)C)NC(=O)[C@H](Cc1c[nH]cn1)NC(=O)[C@H](CCCCN)NC2=O", "note": "[Pn3a, µ-Theraphotoxin-Pn3a]", "values": [
      {"measurement": "effect on Nav1.7 SSI (in words)", "setting": "[1]", "value": "[…]"},
      {"measurement": "effect on Nav1.7 voltage dependence of activation (in words)", "setting": "[1]", "value": "[…]"},
      {"measurement": "time to steady-state Nav1.7 block", "setting": "[1]", "value": "[…]"},
      {"measurement": "IC50", "setting": "[1]; read-out: IC 50 for Nav1.7", "value": "[…]"},
      {"measurement": "inhibition of Cav1.3-mediated current", "setting": "[2]", "value": "65.6 ± 1.8", "unit": "%"},
      {"measurement": "suppression of TTXs-I Na (in words)", "setting": "[3]", "value": "strongly suppress"},
      {"measurement": "V0.5 of activation", "setting": "[4]", "value": "11.7 ± 0.1", "unit": "mV"},
      {"measurement": "effect on voltage dependence of activation (in words)", "setting": "[4]", "value": "slightly shifted; also recorded: without apparent changes in channel activation"},
      {"measurement": "slope factor ka of activation", "setting": "[4]", "value": "3.7 ± 0.1"}
    ]}
  ]
}
